According to patent US9809623B2, “α4β7 peptide monomer and dimer antagonists” (Protagonist Therapeutics, Inc., priority 2014, dated 2017):
Where two headings read alike, the source gives them in different places. Numbered stars: 1 amine (or outer) side, 2 acyl side, 3 side chain; on linkers, the order of the positions; unused ones are H or OH. Bridge positions count the residues as written; N and C are the ends. Square brackets hold non-standard residues; d marks the D form. Peptide text beside a SMILES is read from it. I, II: the chains in the order shown. Phe(4-tBu) = CC(C)(C)c1ccc(C[C@H](N)C(=O)O)cc1; 2Nal = N[C@@H](Cc1ccc2ccccc2c1)C(=O)O; Diglycolyl = O=C(COCC(=O)[*:2])[*:1]; NMeR = CN[C@@H](CCCNC(=N)N)C(=O)O; β3hE = N[C@@H](CCC(=O)O)CC(=O)O; NMeK = CN[C@@H](CCCCN)C(=O)O; Pen = CC(C)(S)[C@H](N)C(=O)O

What was measured:
α4β7 = α4β7 (Homo sapiens, UniProt P13612+P26010); experiment: α4β7-MAdCAM Cell Adhesion Assay (RPMI 8866 human cells); assay type: cell-based; parameters: host or cells: RPMI 8866 human B lymphoblastoid cells
α4β7, sequence (P13612 34-1032): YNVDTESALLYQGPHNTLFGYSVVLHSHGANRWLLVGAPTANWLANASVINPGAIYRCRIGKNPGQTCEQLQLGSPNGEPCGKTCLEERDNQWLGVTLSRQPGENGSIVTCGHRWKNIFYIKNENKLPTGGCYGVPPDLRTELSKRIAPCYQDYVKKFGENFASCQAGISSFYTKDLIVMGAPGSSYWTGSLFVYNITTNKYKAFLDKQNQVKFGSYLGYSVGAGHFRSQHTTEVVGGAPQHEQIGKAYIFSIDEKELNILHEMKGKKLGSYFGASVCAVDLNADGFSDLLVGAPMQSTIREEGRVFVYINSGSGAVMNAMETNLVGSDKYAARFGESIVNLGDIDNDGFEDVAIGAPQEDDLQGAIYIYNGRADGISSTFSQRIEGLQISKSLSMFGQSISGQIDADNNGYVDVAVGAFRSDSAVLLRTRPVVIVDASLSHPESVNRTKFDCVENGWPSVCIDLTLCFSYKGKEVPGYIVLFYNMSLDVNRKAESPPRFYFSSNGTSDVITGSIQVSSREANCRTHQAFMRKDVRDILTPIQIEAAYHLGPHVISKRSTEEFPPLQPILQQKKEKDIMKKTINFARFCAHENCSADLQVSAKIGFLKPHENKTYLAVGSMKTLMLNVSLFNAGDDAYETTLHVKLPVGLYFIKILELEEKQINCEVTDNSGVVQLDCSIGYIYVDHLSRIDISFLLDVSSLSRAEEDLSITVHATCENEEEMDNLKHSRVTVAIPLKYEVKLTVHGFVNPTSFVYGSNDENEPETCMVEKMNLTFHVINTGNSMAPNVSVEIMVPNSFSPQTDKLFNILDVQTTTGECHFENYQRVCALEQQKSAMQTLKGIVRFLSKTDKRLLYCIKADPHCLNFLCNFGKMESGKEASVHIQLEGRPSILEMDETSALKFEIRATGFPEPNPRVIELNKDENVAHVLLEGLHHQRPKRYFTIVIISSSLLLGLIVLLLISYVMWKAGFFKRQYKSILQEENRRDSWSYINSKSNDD
α4β7, sequence (P26010 20-798): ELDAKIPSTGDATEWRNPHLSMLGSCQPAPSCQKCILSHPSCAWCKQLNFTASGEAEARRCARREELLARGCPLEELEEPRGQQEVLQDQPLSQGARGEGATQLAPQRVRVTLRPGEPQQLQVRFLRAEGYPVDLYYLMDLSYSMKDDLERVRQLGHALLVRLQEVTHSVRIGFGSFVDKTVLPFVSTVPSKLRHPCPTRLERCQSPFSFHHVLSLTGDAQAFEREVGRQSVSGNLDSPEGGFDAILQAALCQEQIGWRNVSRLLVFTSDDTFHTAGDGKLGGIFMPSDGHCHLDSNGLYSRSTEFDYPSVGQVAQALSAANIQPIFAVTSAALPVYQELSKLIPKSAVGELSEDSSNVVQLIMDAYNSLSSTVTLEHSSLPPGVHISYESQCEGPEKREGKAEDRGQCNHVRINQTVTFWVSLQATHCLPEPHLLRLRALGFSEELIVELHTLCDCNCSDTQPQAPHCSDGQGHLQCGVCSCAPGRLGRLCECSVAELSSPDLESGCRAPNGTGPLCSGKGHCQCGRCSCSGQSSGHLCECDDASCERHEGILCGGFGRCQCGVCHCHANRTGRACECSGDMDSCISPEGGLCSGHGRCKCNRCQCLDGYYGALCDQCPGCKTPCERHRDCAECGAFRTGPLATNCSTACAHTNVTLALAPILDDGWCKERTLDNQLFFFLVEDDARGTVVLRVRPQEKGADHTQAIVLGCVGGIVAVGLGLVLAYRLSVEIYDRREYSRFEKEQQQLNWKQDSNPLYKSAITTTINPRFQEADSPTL
Method in brief: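 Adhesion read-out: MTT absorbance at 570 nm minus no-cell wells, after three washes. Plates coated with rh MAdCAM-1/Fc received peptide dilutions plus 200,000 RPMI 8866 cells in Mn2+ (1 mM)-supplemented DMEM, 0.1% BSA, HEPES pH 7, incubated 30-45 min, 37 °C.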

[1] = Simulated Intestinal Fluid (SIF) Stability Assay; assay type: in vitro ADME, porcine; details: for half-life at 22 μM: pig, simulated intestinal fluid (SIF) with 1% porcine pancreatin
Method in brief: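 Intestinal stability: percent peptide remaining over time, by LC-MS/MS peak-area ratio to internal standard, fitted to first-order decay for half-life. Conditions: 22 μM peptide, 1% pancreatin in pH 6.5 blank FASSIF, 37 °C.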

rh integrin α4β7 = biological target: T1, rh integrin α4β7 (Homo sapiens, UniProt P13612+P26010); experiment: α4β7-MAdCAM Competition ELISA; assay type: binding
T1 construct: purchased R&D Systems 5397-A30
T1 sequence (P13612 34-977 limits assumed): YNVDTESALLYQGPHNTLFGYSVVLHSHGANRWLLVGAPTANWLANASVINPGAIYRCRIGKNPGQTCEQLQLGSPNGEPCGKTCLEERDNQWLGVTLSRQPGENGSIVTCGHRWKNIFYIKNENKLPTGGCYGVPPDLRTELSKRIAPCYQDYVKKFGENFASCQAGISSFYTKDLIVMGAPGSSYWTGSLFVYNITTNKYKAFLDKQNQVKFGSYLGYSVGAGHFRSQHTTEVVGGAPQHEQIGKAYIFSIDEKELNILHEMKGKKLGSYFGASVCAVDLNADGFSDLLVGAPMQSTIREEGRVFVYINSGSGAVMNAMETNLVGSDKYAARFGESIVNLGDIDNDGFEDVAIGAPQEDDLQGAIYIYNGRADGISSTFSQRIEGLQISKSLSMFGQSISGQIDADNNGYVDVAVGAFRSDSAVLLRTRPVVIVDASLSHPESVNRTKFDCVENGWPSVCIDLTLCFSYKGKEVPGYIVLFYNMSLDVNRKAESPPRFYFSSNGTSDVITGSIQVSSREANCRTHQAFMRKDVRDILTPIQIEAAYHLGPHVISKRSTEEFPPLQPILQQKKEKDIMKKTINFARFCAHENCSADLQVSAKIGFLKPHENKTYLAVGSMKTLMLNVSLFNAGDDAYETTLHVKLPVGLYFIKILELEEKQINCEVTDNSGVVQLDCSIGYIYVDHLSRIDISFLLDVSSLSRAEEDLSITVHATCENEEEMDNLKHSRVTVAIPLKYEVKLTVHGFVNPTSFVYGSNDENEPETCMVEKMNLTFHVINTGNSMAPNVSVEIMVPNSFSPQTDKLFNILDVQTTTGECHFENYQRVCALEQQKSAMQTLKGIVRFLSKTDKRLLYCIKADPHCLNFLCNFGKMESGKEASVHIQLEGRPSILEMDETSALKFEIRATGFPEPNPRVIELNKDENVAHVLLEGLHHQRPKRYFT
T1 sequence (P26010 20-723 limits assumed): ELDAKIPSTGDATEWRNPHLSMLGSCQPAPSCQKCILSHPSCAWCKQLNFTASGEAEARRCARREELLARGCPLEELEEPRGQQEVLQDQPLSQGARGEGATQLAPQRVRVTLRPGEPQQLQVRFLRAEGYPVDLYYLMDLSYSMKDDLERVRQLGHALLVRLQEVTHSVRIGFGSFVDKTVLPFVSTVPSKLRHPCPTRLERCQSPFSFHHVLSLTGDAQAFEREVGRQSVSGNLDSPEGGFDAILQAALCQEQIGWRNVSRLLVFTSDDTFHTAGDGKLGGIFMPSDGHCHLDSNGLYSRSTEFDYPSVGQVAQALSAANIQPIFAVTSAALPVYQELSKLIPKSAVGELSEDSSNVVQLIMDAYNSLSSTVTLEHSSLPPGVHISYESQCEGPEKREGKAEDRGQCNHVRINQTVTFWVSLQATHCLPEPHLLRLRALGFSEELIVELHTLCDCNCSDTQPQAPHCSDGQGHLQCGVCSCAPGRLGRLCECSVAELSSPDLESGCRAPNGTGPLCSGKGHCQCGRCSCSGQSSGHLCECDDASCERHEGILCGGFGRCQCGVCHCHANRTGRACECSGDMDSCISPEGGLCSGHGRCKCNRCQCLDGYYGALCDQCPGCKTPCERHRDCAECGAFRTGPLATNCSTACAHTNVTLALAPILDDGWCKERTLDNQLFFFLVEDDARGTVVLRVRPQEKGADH
Method in brief: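 Competition read-out was A450 after anti-human IgG1-HRP and TMB detection of bound recombinant human MAdCAM-1 (10 nM final). Peptides were serially diluted 3-fold from a final 10 μM and equilibrated 1 h at room temperature on nickel-captured α4β7 (800 ng/well). The buffer was Tris pH 7.6 with 1 mM Mn2+ or Mg2+.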

[2] = Table 4-B, read-out: Cell Adhesion α4β7 IC50
[3] = Table 4-B, read-out: ELISA α4β7 IC50
[4] = pH 6.5, Table 4-C, t1/2, > means assay stopped at that time, read-out: SIF (porcine) Min

Compound | IC50 (α4β7; Table 3-B, Potency (α4β7), range classes, read-out: α4β7 cell (Hu) IC50) | half-life at 22 μM ([1]; pH 6.5, Table 3-B, > means experiment was stopped at that time and half life was not reached, read-out: Stabilty SIF t1/2) | IC50 (rh integrin α4β7; Table 3-B, Potency (α4β7), range classes, read-out: α4β7 ELISA IC50) | IC50 (α4β7; [2]) | SIF (porcine), printed in hr in the cell ([1]; Table 4-C, t1/2) | IC50 (rh integrin α4β7; [3]) | half-life at 22 μM [1, 4]
CC(=O)N[C@@H]1C(=O)N(C)[C@@H](CCCNC(=N)N)C(=O)N[C@@H](CO)C(=O)N[C@@H](CC(=O)O)C(=O)N[C@@H]([C@@H](C)O)C(=O)N[C@@H](CC(C)C)C(=O)N[C@H](C(=O)N[C@@H](Cc2c[nH]c3ccccc23)C(=O)N[C@H](CCC(=O)O)C(=O)N[C@H](CCCCNC(=O)COCC(=O)NCCCC[C@@H](NC(=O)[C@@H](CCC(=O)O)NC(=O)[C@H](Cc2c[nH]c3ccccc23)NC(=O)[C@H]2NC(=O)[C@H](CC(C)C)NC(=O)[C@H]([C@@H](C)O)NC(=O)[C@H](CC(=O)O)NC(=O)[C@H](CO)NC(=O)[C@H](CCCNC(=N)N)N(C)C(=O)[C@@H](NC(C)=O)C(C)(C)SSC2(C)C)C(N)=O)C(N)=O)C(C)(C)SSC1(C)C [compound 68] (I: Ac-[Pen][NMeR]SDTL[Pen]W[dE][dK]-NH2 / II: Ac-[Pen][NMeR]SDTL[Pen]W[dE][dK]-NH2; disulfide I:1-I:7, II:1-II:7; linker I:10-II:10 via Diglycolyl) | 25 to 50 nM | > 5 h | < 10 nM | – | – | – | –
CC(=O)N[C@@H]1C(=O)N(C)[C@@H](CCCNC(=N)N)C(=O)N[C@@H](CO)C(=O)N[C@@H](CC(=O)O)C(=O)N[C@@H]([C@@H](C)O)C(=O)N[C@@H](CC(C)C)C(=O)N[C@H](C(=O)N[C@@H](Cc2ccc(C(C)(C)C)cc2)C(=O)N[C@@H](CCC(=O)O)CC(=O)N[C@H](CCCCNC(=O)COCC(=O)NCCCC[C@@H](NC(=O)C[C@H](CCC(=O)O)NC(=O)[C@H](Cc2ccc(C(C)(C)C)cc2)NC(=O)[C@H]2NC(=O)[C@H](CC(C)C)NC(=O)[C@H]([C@@H](C)O)NC(=O)[C@H](CC(=O)O)NC(=O)[C@H](CO)NC(=O)[C@H](CCCNC(=N)N)N(C)C(=O)[C@@H](NC(C)=O)C(C)(C)SSC2(C)C)C(N)=O)C(N)=O)C(C)(C)SSC1(C)C [compound 218, [Ac-Pen-(N-Me-Arg)-Ser-Asp-Thr-Leu-Pen-Phe(4-tBu)-(β-homoGlu)-(D-Lys)-NH2]2-DIG] (I: Ac-[Pen][NMeR]SDTL[Pen][Phe(4-tBu)][β3hE][dK]-NH2 / II: Ac-[Pen][NMeR]SDTL[Pen][Phe(4-tBu)][β3hE][dK]-NH2; disulfide I:1-I:7, II:1-II:7; linker I:10-II:10 via Diglycolyl) | – | – | – | 0.78 nM | 11 h | 2.8 nM | –
CC(=O)N[C@@H]1C(=O)N(C)[C@@H](CCCNC(=N)N)C(=O)N[C@@H](CO)C(=O)N[C@@H](CC(=O)O)C(=O)N[C@@H]([C@@H](C)O)C(=O)N[C@@H](CC(C)C)C(=O)N[C@H](C(=O)N[C@@H](Cc2ccc3ccccc3c2)C(=O)N[C@@H](CCC(=O)O)C(=O)N[C@H](CCCCNC(=O)COCC(=O)NCCCC[C@@H](NC(=O)[C@H](CCC(=O)O)NC(=O)[C@H](Cc2ccc3ccccc3c2)NC(=O)[C@H]2NC(=O)[C@H](CC(C)C)NC(=O)[C@H]([C@@H](C)O)NC(=O)[C@H](CC(=O)O)NC(=O)[C@H](CO)NC(=O)[C@H](CCCNC(=N)N)N(C)C(=O)[C@@H](NC(C)=O)C(C)(C)SSC2(C)C)C(N)=O)C(N)=O)C(C)(C)SSC1(C)C [compound 212, (Ac-Pen-N-Me-R-S-D-T-L-Pen-2-Nal-E-k-NH2)2-DIG] (I: Ac-[Pen][NMeR]SDTL[Pen][2Nal]E[dK]-NH2 / II: Ac-[Pen][NMeR]SDTL[Pen][2Nal]E[dK]-NH2; disulfide I:1-I:7, II:1-II:7 (inferred); linker I:10-II:10 via Diglycolyl (inferred)) | – | – | – | 2.5 nM | – | 2 nM | 1.5 h
CC(=O)N[C@H]1CSSC[C@@H](C(=O)NCC(=O)N[C@@H](CCC(=O)O)C(N)=O)NC(=O)[C@H](CC(C)C)NC(=O)[C@H]([C@@H](C)O)NC(=O)[C@H](CC(=O)O)NC(=O)[C@H](CO)NC(=O)[C@H](CCCNC(=N)N)NC1=O [compound 194, Ac-C-R-S-D-T-L-C-G-E-NH2] (Ac-CRSDTLCGE-NH2; disulfide 1-7) | – | – | – | 590 nM | – | 97 nM | < 0.0167 h
CC(=O)N[C@H]1CSSC(C)(C)[C@@H](C(=O)N[C@@H](Cc2c[nH]c3ccccc23)C(=O)N[C@H](CCCCNC(=O)COCC(=O)NCCCC[C@@H](NC(=O)[C@H](Cc2c[nH]c3ccccc23)NC(=O)[C@H]2NC(=O)[C@H](CC(C)C)NC(=O)[C@H]([C@@H](C)O)NC(=O)[C@H](CC(=O)O)NC(=O)[C@H](CO)NC(=O)[C@H](CCCNC(=N)N)N(C)C(=O)[C@@H](NC(C)=O)CSSC2(C)C)C(N)=O)C(N)=O)NC(=O)[C@H](CC(C)C)NC(=O)[C@H]([C@@H](C)O)NC(=O)[C@H](CC(=O)O)NC(=O)[C@H](CO)NC(=O)[C@H](CCCNC(=N)N)N(C)C1=O [compound 204, (Ac-C-N-Me-R-S-D-T-L-Pen-W-k-NH2)2-DIG] (I: Ac-C[NMeR]SDTL[Pen]W[dK]-NH2 / II: Ac-C[NMeR]SDTL[Pen]W[dK]-NH2; disulfide I:1-I:7, II:1-II:7 (inferred); linker I:9-II:9 via Diglycolyl (inferred)) | – | – | – | 22 nM | – | 2 nM | > 6 h
CC(=O)N[C@@H]1C(=O)N(C)[C@@H](CCCNC(=N)N)C(=O)N[C@@H](CO)C(=O)N[C@@H](CC(=O)O)C(=O)N[C@@H]([C@@H](C)O)C(=O)N[C@@H](CC(C)C)C(=O)N[C@H](C(=O)N[C@@H](Cc2c[nH]c3ccccc23)C(=O)N[C@H](CCCCN)C(N)=O)C(C)(C)SSC1(C)C [compound 208, Ac-Pen-N-Me-R-S-D-T-L-Pen-W-k-NH2] (Ac-[Pen][NMeR]SDTL[Pen]W[dK]-NH2; disulfide 1-7) | – | – | – | 412 nM | – | 30.5 nM | > 6 h
CC(=O)N[C@@H]1C(=O)N(C)[C@@H](CCCNC(=N)N)C(=O)N[C@@H](CO)C(=O)N[C@@H](CC(=O)O)C(=O)N[C@@H]([C@@H](C)O)C(=O)N[C@@H](CC(C)C)C(=O)N[C@H](C(=O)N[C@@H](Cc2c[nH]c3ccccc23)C(=O)N[C@@H](CCC(=O)O)C(=O)N(C)[C@@H](CCCCNC(=O)COCC(=O)NCCCC[C@@H](C(N)=O)N(C)C(=O)[C@H](CCC(=O)O)NC(=O)[C@H](Cc2c[nH]c3ccccc23)NC(=O)[C@H]2NC(=O)[C@H](CC(C)C)NC(=O)[C@H]([C@@H](C)O)NC(=O)[C@H](CC(=O)O)NC(=O)[C@H](CO)NC(=O)[C@H](CCCNC(=N)N)N(C)C(=O)[C@@H](NC(C)=O)C(C)(C)SSC2(C)C)C(N)=O)C(C)(C)SSC1(C)C [compound 215, [Ac-Pen-(N-Me-Arg)-Ser-Asp-Thr-Leu-Pen-Trp-Glu-(N-Me-Lys)-NH2]2-DIG] (I: Ac-[Pen][NMeR]SDTL[Pen]WE[NMeK]-NH2 / II: Ac-[Pen][NMeR]SDTL[Pen]WE[NMeK]-NH2; disulfide I:1-I:7, II:1-II:7 (inferred); linker I:10-II:10 via Diglycolyl (inferred)) | – | – | – | 3 nM | – | 2.2 nM | > 6 h
